Here are results for 3 compounds from patent US5210089A, “D-rhamnono-1,5-lactone” (Monsanto Company, priority 1992, dated 1993).

Structures are written as SMILES.

One assay deals with T1, β-mannosidase (Homo sapiens, UniProt O00462).
T1 sequence (O00462 18-879): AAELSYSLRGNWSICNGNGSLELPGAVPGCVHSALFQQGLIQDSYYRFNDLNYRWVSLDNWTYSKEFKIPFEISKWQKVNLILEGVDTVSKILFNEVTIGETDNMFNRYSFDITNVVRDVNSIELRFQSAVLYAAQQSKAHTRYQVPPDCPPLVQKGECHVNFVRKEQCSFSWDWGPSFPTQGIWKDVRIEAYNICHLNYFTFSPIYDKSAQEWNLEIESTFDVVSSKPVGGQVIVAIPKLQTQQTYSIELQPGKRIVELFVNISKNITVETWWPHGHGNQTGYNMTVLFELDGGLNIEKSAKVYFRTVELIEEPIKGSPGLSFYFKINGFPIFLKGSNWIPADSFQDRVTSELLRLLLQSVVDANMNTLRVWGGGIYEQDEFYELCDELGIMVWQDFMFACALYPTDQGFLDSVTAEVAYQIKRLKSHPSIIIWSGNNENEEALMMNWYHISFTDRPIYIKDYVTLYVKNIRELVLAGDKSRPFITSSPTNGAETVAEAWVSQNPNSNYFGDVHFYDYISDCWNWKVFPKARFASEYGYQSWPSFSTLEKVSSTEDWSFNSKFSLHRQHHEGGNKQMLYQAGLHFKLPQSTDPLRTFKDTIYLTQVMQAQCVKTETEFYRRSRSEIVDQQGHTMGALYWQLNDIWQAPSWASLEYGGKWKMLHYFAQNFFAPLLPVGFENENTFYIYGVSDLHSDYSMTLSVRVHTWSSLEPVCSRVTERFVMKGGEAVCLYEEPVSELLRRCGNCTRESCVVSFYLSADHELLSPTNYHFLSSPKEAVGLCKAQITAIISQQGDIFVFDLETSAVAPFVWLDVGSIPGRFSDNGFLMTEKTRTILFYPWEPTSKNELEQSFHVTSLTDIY
As to the kind of experiment: Human liver glycosidase assay, β-mannosidase. Type of assay: biochemical. On the set-up: human liver extracts; from tissue; host or cells: human liver extracts. How it is done:
(§1) Melting points were recorded on a Kofler hot block. Proton nuclear magnetic resonance (δH) spectra were recorded on Varian Gemini 200 (at 200 MHz), Bruker WH 300 (300 MHz), or Bruker AM 500 (500 MHz) spectrometers. Carbon nuclear magnetic resonance (δC) spectra were recorded on a Varian Gemini 200 (50 MHz) or a Bruker 250 (62.9 MHz) spectrometer. Multiplicities were assigned using DEPT sequence on the Gemini and by off resonance decoupling on the Bruker. Spectra run in D2 O were referenced to methanol as an internal standard. All chemical shifts are quoted on the δ-scale. Infrared spectra were recorded on a Perkin-Elmer 297, or on a Perkin-Elmer 781 spectrophotometer. Mass spectra were recorded on VG Micromass 30F, ZAB lF, Masslab 20-250 or Trio-1 GCMS (DB-5 column) spectrometers using desorption chemical ionization (NH3 DCI), electron impact (EI), chemical ionization (NH3 CI) and fast atom bombardment (FAB) techniques, as stated. […] Concentrations were given in g/100 ml. Hydrogenations were run under an atmosphere of hydrogen gas maintained by inflated balloon. Microanalyses were performed by the microanalysis service of the DysonPerrins laboratory, Oxford UK. Thin layer chromatography (t.l.c.) was carried out on aluminum sheets coated with 60F254 silica. Plates were developed using either 5% v/v concentrated sulphuric acid in methanol, 0.2% w/v cerium (IV) sulphate and 5% ammonium molybdate in 2M sulphuric acid and 0.5% ninhydrin in methanol. Flash chromatography was carried out using Sorbsil C60 40/60 silica. Ion-exchange chromatography was performed using Dowex 50W-X8 (H) and Sigma CG 400 (Cl) resins. The resins were washed with 2M hydrochloric acid and 2M sodium hydroxide solution, respectively, and subsequently with distilled water, prior to use. Solvents and commercially available reagents were dried and purified before use according to standard procedures; dichloromethane was refluxed over and distilled from calcium hydride, N,N-dimethylformamide was distilled under reduced pressure from calcium hydride, methanol was distilled from magnesium methoxide, pyridine was distilled from, and stored over, potassium hydroxide and tetrahydrofuran was distilled from a purple solution of sodium benzophenone ketyl immediately before use. Hexane was distilled at 68° C. before use to remove involatile fractions. 2,3-O-Isopropylidene-L-gulono-1,4-lactone (9) [H. Ogura et al., J. Oro. Chem. 37, 72 (1972); G. W. J. Fleet Tetrahedron 45, 319 (1989)]and 2,3-O-isopropylidene-D-gulono-1,4-lactone (15) [L. M. Lerner et al., J. Org. […]
(§2) The enzymes included human liver glycosidases and naringinase. The latter enzyme is a readily available endo-L-rhamnosidase described by Romero et al., Anal. Biochem. 149, 566 (1985).

In the next assay the target is T2, cytosolic β-glucosidase (Homo sapiens, UniProt Q9H227).
T2 construct: human liver extracts; from tissue; host or cells: human liver extracts
T2 sequence (Q9H227 1-469): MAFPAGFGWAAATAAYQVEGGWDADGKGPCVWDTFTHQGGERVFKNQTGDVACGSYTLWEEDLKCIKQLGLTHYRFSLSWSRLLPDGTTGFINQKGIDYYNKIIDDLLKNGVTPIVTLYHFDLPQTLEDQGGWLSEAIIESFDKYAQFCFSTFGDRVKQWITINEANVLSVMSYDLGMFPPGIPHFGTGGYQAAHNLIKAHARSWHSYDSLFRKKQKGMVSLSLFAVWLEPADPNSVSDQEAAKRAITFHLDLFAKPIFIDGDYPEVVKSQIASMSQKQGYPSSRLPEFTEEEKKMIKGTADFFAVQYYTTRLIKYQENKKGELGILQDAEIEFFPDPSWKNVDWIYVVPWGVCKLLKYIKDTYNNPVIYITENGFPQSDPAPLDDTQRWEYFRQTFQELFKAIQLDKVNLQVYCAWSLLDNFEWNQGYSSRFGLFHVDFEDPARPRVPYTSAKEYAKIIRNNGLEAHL
As to the kind of experiment: Human liver glycosidase assay, cytosolic β-glucosidase. Type of assay: biochemical. The following applies: for inhibition at 1000 µM: 1 mM compound; for IC50: read-out: I50, cytosolic β-glucosidase. How it is done:
as §1, §2

In the next assay the test system is apricot β-glucosidase. The following applies: literature; cited from earlier work.

With `C[C@@H]1NC(=O)[C@H](O)[C@H](O)[C@H]1O` [L-Rhamno-1,5-lactam (8), 6-Deoxy-L-mannono-δ-lactam], the “Inhibition of β-mannosidase (in words)” value on β-mannosidase is “no inhibitory activity”.

`C[C@H]1NC(=O)[C@@H](O)[C@@H](O)[C@@H]1O` [D-Rhamno-1,5-lactam (6), 6-Deoxy-D-mannono-δ-lactam]: at cytosolic β-glucosidase, the inhibition at 1000 µM turned out to be 67% and the IC50 worked out at 700 µM. On β-mannosidase, the “Inhibition of β-mannosidase (in words)” value is “inhibitor of α- and β-mannosidases”.

`O=C1N[C@H](CO)[C@@H](O)[C@H](O)[C@@H]1O` [Mannono-1,5-lactam (2), D-mannonolactam]: the inhibition at 1000 µM stood at 98% against cytosolic β-glucosidase and 99% at β-mannosidase (read-out: Inhibition (%) at 1 mM, β-mannosidase). The IC50 on cytosolic β-glucosidase came to 50 µM; against β-mannosidase, 10 µM. The “Inhibition of apricot β-glucosidase (in words)” value in the assay with apricot β-glucosidase is “powerful inhibitor”.

Broadly, the inhibition is the relative decrease from the control value, in per cent.
